What is called IC50 is the concentration needed to halve the response being measured.

These results are taken from ChEMBL document CHEMBL1152321, “Recent advances in the chemistry and biology of new generation taxoids” (J Nat Prod, 2009).

The nature of assay [1]: Cytotoxicity against P-glycoprotein deficient wild type human LCC-6 cells after 72 hrs. The format is functional, cell-based. Conditions: LCC-6, 72 h.
Assay [2] is described as follows: Resistance factor, ratio of IC50 for human LCC-6 cells expressing P-glycoprotein to IC50 for P-glycoprotein deficient wild type human LCC-6 cells. Type of assay: functional. Further details: reference not given here.
The test system of assay [3] is MCF7. Briefly: Resistance factor, ratio of IC50 for P-glycoprotein deficient wild type human MCF7 cells to IC50 for multidrug-resistant human NCI/ADR cells. Type of assay: functional.
Assay [4] can be described thus: Cytotoxicity against human LCC-6 cells expressing P-glycoprotein after 72 hrs. Type of assay: functional, cell-based. As to conditions: LCC-6, 72 h.
The test system of assay [5] is MCF7. Briefly: Cytotoxicity against P-glycoprotein deficient wild type human MCF7 cells after 72 hrs. The format is functional, cell-based. Conditions: MCF7, 72 h.
In assay [6] the test system is MCF7. The assay can be described thus: Cytotoxicity against human MCF7 cells expressing P-glycoprotein after 72 hrs. Type of assay: functional, cell-based. As to conditions: MCF7, 72 h.
In assay [7] the test system is MCF7. Briefly: Resistance factor, ratio of IC50 for human MCF7 cells expressing P-glycoprotein to IC50 for P-glycoprotein deficient wild type human MCF7 cells. The format is functional.
The test system of assay [8] is NCI-H460. The assay can be described thus: Cytotoxicity against human H460 cells after 72 hrs. As to conditions: NCI-H460, 72 h. The format is functional, cell-based.
The subject of assay [9] is HT-29. Briefly: Cytotoxicity against human HT-29 cells after 72 hrs. Type of assay: functional, cell-based. Conditions: HT-29, 72 h.

In assay [1], `CCC(=O)O[C@H]1C(=O)[C@@]2(C)[C@H]([C@H](OC(=O)c3cccc(OC)c3)[C@]3(O)C[C@H](OC(=O)[C@H](O)[C@H](C=C(C)C)NC(=O)OC4CCCCC4)C(C)=C1C3(C)C)[C@]1(OC(C)=O)CO[C@@H]1C[C@@H]2O` gave a concentration for half-maximal inhibition (IC50) of 1.23 nM. Also, the Ratio came to 12 in assay [2] and 9.7 in [3].
For `CC(=O)O[C@@]12CO[C@@H]1C[C@H](O)[C@@]1(C)C(=O)[C@H](OC(=O)N(C)C)C3=C(C)[C@@H](OC(=O)[C@H](O)[C@@H](NC(=O)OC(C)(C)C)C(F)(F)F)C[C@@](O)([C@@H](OC(=O)c4cccc(N=[N+]=[N-])c4)[C@H]21)C3(C)C`, the IC50 was 1.27 nM in assay [1]; 3.52 nM in [4]; 0.47 nM in [5]; 2.61 nM in assay [6]; 0.3 nM in [8]; 0.5 nM in assay [9]. The Ratio amounted to 2.8 in assay [2] and 5.6 in assay [7].
On to `COC(=O)O[C@H]1C(=O)[C@@]2(C)[C@H]([C@H](OC(=O)c3cccc(Cl)c3)[C@]3(O)C[C@H](OC(=O)[C@H](O)[C@@H](NC(=O)OC(C)(C)C)C(F)F)C(C)=C1C3(C)C)[C@]1(OC(C)=O)CO[C@@H]1C[C@@H]2O`, for which the IC50 in assay [1] came out at 0.13 nM; in assay [4], 1.82 nM; in assay [5] it was 0.26 nM; in [6] it was 2.08 nM; in assay [8], 0.25 nM; in assay [9] it was 0.29 nM. Further, the Ratio in assay [2] is 14; in [7], 8.
`CC(=O)O[C@@]12CO[C@@H]1C[C@H](O)[C@@]1(C)C(=O)[C@H](OC(=O)N(C)C)C3=C(C)[C@@H](OC(=O)[C@H](O)[C@@H](NC(=O)OC(C)(C)C)C(F)F)C[C@@](O)([C@@H](OC(=O)c4cccc(F)c4)[C@H]21)C3(C)C`: the IC50 was determined as 0.69 nM in assay [1]; 10.6 nM in [4]; 0.52 nM in [5]; 8.13 nM in assay [6]; 0.2 nM in assay [8]; 0.35 nM in [9]. For the same compound, the Ratio in assay [2] was 15; in assay [7], 16.
Regarding `CCC(=O)O[C@H]1C(=O)[C@@]2(C)[C@H]([C@H](OC(=O)c3ccccc3)[C@]3(O)C[C@H](OC(=O)[C@H](O)[C@H](C=C(C)C)NC(=O)OC(C)(C)C)C(C)=C1C3(C)C)[C@]1(OC(C)=O)CO[C@@H]1C[C@@H]2O`, the Ratio in [3] is 22.
For the compound `COc1cccc(C(=O)O[C@H]2[C@@H]3[C@]4(OC(C)=O)CO[C@@H]4C[C@H](O)[C@@]3(C)C(=O)[C@H](OC(=O)N(C)C)C3=C(C)[C@@H](OC(=O)[C@H](O)[C@@H](NC(=O)OC(C)(C)C)C(F)(F)F)C[C@]2(O)C3(C)C)c1`, the IC50 in assay [1] stood at 0.28 nM; in [4], 4.48 nM; in [5], 0.57 nM; in assay [6], 1.84 nM; in assay [8], 0.35 nM; in assay [9], 0.68 nM. The results for the Ratio in [2] and in [7] were 16 and 3.2, respectively.
Consider `COC(=O)O[C@H]1C(=O)[C@@]2(C)[C@H]([C@H](OC(=O)c3cccc(N=[N+]=[N-])c3)[C@]3(O)C[C@H](OC(=O)[C@H](O)[C@@H](NC(=O)OC(C)(C)C)C(F)(F)F)C(C)=C1C3(C)C)[C@]1(OC(C)=O)CO[C@@H]1C[C@@H]2O`, for which the IC50 in [1] was determined as 1.09 nM; in assay [4], 4 nM; in assay [5] it was 0.47 nM; in assay [6], 2.92 nM; in [8], 0.2 nM; in [9], 0.4 nM. Besides, the results for the Ratio in assay [2] and in assay [7] were 3.7 and 6.2, respectively.
As for `CCC(=O)O[C@H]1C(=O)[C@@]2(C)[C@H]([C@H](OC(=O)c3cccc(F)c3)[C@]3(O)C[C@H](OC(=O)[C@H](O)[C@@H](NC(=O)OC(C)(C)C)C(F)F)C(C)=C1C3(C)C)[C@]1(OC(C)=O)CO[C@@H]1C[C@@H]2O`, the concentration for half-maximal inhibition (IC50) turned out to be 0.88 nM in [1]; 4.63 nM in assay [4]; 0.53 nM in [5]; 7.24 nM in [6]; 0.41 nM in assay [8]; 0.86 nM in assay [9]. Further, the results for the Ratio in assay [2] and in assay [7] were 3.5 and 14, respectively.
Consider `CC(=O)O[C@@]12CO[C@@H]1C[C@H](O)[C@@]1(C)C(=O)[C@H](OC(=O)N(C)C)C3=C(C)[C@@H](OC(=O)[C@H](O)[C@@H](NC(=O)OC(C)(C)C)C(F)F)C[C@@](O)([C@@H](OC(=O)c4cccc(N=[N+]=[N-])c4)[C@H]21)C3(C)C`, for which the IC50 in assay [1] came to 0.29 nM; in assay [4], 1.69 nM; in [5], 0.37 nM; in assay [6], 1.44 nM; in assay [8], 0.52 nM; in assay [9], 0.4 nM. The results for the Ratio in assay [2] and in assay [7] were 5.8 and 3.9, respectively.
`CC(=O)O[C@H]1C(=O)[C@@]2(C)[C@H]([C@H](OC(=O)c3cccc(N=[N+]=[N-])c3)[C@]3(O)C[C@H](OC(=O)[C@H](O)[C@@H](NC(=O)OC(C)(C)C)C(F)(F)F)C(C)=C1C3(C)C)[C@]1(OC(C)=O)CO[C@@H]1C[C@@H]2O`: the half-inhibitory concentration (IC50) in assay [1] stood at 1.18 nM; in [4], 4 nM; in [5] it was 0.47 nM; in assay [6], 3.85 nM; in assay [8] it was 0.2 nM; in assay [9], 0.5 nM. Further, the Ratio came out at 3.4 in assay [2] and 8.2 in assay [7].
Turning to `CC(=O)O[C@H]1C(=O)[C@@]2(C)[C@H]([C@H](OC(=O)c3cccc(N=[N+]=[N-])c3)[C@]3(O)C[C@H](OC(=O)[C@H](O)[C@@H](NC(=O)OC(C)(C)C)C(F)F)C(C)=C1C3(C)C)[C@]1(OC(C)=O)CO[C@@H]1C[C@@H]2O`, the half-maximal inhibitory concentration (IC50) in assay [1] was 0.22 nM; in [4], 1.57 nM; in [5], 0.32 nM; in [6], 1.68 nM; in assay [8], 0.48 nM; in assay [9] it was 0.57 nM. Further, the Ratio in [2] amounted to 7.1; in assay [7], 5.3.
With `COC(=O)O[C@H]1C(=O)[C@@]2(C)[C@H]([C@H](OC(=O)c3cccc(F)c3)[C@]3(O)C[C@H](OC(=O)[C@H](O)[C@@H](NC(=O)OC(C)(C)C)C(F)(F)F)C(C)=C1C3(C)C)[C@]1(OC(C)=O)CO[C@@H]1C[C@@H]2O`, the IC50 in [1] turned out to be 0.39 nM; in assay [4], 5.81 nM; in assay [5] it was 0.31 nM; in assay [6], 4.88 nM; in assay [8], 0.61 nM; in assay [9] it was 0.85 nM. Further, the figures for the Ratio in assay [2] and in [7] were 15 and 16, respectively.
`CCC(=O)O[C@H]1C(=O)[C@@]2(C)[C@H]([C@H](OC(=O)c3cccc(N=[N+]=[N-])c3)[C@]3(O)C[C@H](OC(=O)[C@H](O)[C@@H](NC(=O)OC(C)(C)C)C(F)(F)F)C(C)=C1C3(C)C)[C@]1(OC(C)=O)CO[C@@H]1C[C@@H]2O`: the IC50 in [1] was 1.09 nM; in assay [4] it was 2.56 nM; in assay [5] it was 0.38 nM; in [6] it was 1.61 nM; in assay [8], 0.2 nM; in [9] it was 0.4 nM. For the same compound, the Ratio in [2] is reported as 2.3; in assay [7] it was 4.2.
`CC(=O)O[C@H]1C(=O)[C@@]2(C)[C@H]([C@H](OC(=O)c3cccc(Cl)c3)[C@]3(O)C[C@H](OC(=O)[C@H](O)[C@@H](NC(=O)OC(C)(C)C)C(F)F)C(C)=C1C3(C)C)[C@]1(OC(C)=O)CO[C@@H]1C[C@@H]2O`: the IC50 in assay [1] came out at 0.31 nM; in [4] it was 5.8 nM; in assay [5], 0.4 nM; in [6], 6.48 nM; in assay [8] it was 0.49 nM; in [9], 1.94 nM. For the same compound, the Ratio in assay [2] is given as 19; in assay [7], 16.
Regarding `COC(=O)O[C@H]1C(=O)[C@@]2(C)[C@H]([C@H](OC(=O)c3cccc(OC)c3)[C@]3(O)C[C@H](OC(=O)[C@H](O)[C@@H](NC(=O)OC(C)(C)C)C(F)F)C(C)=C1C3(C)C)[C@]1(OC(C)=O)CO[C@@H]1C[C@@H]2O`, the IC50 was found to be 1.03 nM in assay [1]; 10.2 nM in assay [4]; 0.81 nM in assay [5]; 6.59 nM in assay [6]; 0.3 nM in assay [8]; 0.44 nM in [9]. Besides, the figures for the Ratio in assay [2] and in assay [7] were 9.9 and 8.1, respectively.
Turning to `COC(=O)O[C@H]1C(=O)[C@@]2(C)[C@H]([C@H](OC(=O)c3cccc(N=[N+]=[N-])c3)[C@]3(O)C[C@H](OC(=O)[C@H](O)[C@@H](NC(=O)OC(C)(C)C)C(F)F)C(C)=C1C3(C)C)[C@]1(OC(C)=O)CO[C@@H]1C[C@@H]2O`, the IC50 in [1] turned out to be 0.26 nM; in [4] it was 2.06 nM; in assay [5] it was 1.69 nM; in assay [6] it was 2.56 nM; in [8], 0.23 nM; in assay [9], 0.36 nM. Further, the Ratio is 7.9 in assay [2] and 1.5 in assay [7].
Take `CCC(=O)O[C@H]1C(=O)[C@@]2(C)[C@H]([C@H](OC(=O)c3ccccc3)[C@]3(O)C[C@H](OC(=O)[C@H](O)[C@H](CC(C)C)NC(=O)OC(C)(C)C)C(C)=C1C3(C)C)[C@]1(OC(C)=O)CO[C@@H]1C[C@@H]2O`: the Ratio in assay [3] is recorded as 15.
In the case of `COC(=O)O[C@H]1C(=O)[C@@]2(C)[C@H]([C@H](OC(=O)c3cccc(F)c3)[C@]3(O)C[C@H](OC(=O)[C@H](O)[C@@H](NC(=O)OC(C)(C)C)C(F)F)C(C)=C1C3(C)C)[C@]1(OC(C)=O)CO[C@@H]1C[C@@H]2O`, the IC50 in [1] was determined as 0.86 nM; in assay [4], 12.6 nM; in [5], 0.59 nM; in assay [6], 11.4 nM; in assay [8], 0.3 nM; in assay [9] it was 0.43 nM. Moreover, the values for the Ratio in assay [2] and in assay [7] were 15 and 19, respectively.
